Laboratory results from US20100216724A1, “USE OF F[…] (196-203 ) AS A […] AGENT” (priority 2007, published 2010).
Where no end group is shown, it is not given here.

Experiments:
HIV-1IIIB = test: HIV-1 antiviral assay (CPE reduction, MTS) in CEM-SS cells; type: cell-based; conditions: test peptide 10 micrograms per ml, 6 days post-infection
Pseudomonas aeruginosa = Pseudomonas aeruginosa assay; type: cell-based; conditions: Pseudomonas aeruginosa growth; peptide 10 micrograms per ml; read visually
MRSA = MRSA growth; peptide 10 micrograms per ml; read visually
Streptococcus pneumoniae = Streptococcus pneumoniae assay; type: cell-based; conditions: Streptococcus pneumoniae growth; peptide 10 micrograms per ml; read visually
in vitro = conditions: human, HepG2-2.2.15 cells
[1] = Cytotoxicity testing (CellTiter 96) in MRC-5 cells; type: cell-based; conditions: human, MRC-5 cells (human embryonal lung fibroblasts), 6 days incubation, read-out: % Cell viability
Experimental: Ganciclovir was used as positive control. […] For cytotxicity testing, MRC-5 cells were seeded at 2,500 cells/well in 96 well plates using growth medium. […] The following day, peptide were added and tested in duplicates. After a 6 days incubation period, cell viability was measured using CellTiter 96 Solution (Promega). Plates were incubated for additional 4 hours at 37° C.

[2] = Cytotoxicity (MTS cell viability) in the HIV-1 assay; conditions: human, CEM-SS cells

Row | Compound | % CPE reduction in HIV-1 infected CEM-SS cells (HIV-1IIIB) | % inhibition (Pseudomonas aeruginosa) | % inhibition (MRSA) | % inhibition (Streptococcus pneumoniae) | viability at 144 h, 10 micrograms per ml (in vitro) | viability at 144 h [1] | viability at 10 micrograms per ml [2]
1 | Cc1cn([C@H]2C[C@H](N=[N+]=[N-])[C@@H](CO)O2)c(=O)[nH]c1=O [AZT] | 99% | – | – | – | – | – | –
2 | SRNRCNDQ-NH2 | – | 0.0% | 0.0% | 0.0% | 100% | 100% | 100%
